# Experiments:
# Test in all cases: surface plasmon resonance, immobilized protein, […] model
# Assay type in all cases: binding
# [1] = molecular target: T1, SR-B1 (Scavenger receptor class B protein 1) (Homo sapiens, UniProt Q8WTV0)
# T1 sequence (Q8WTV0 33-443 limits assumed): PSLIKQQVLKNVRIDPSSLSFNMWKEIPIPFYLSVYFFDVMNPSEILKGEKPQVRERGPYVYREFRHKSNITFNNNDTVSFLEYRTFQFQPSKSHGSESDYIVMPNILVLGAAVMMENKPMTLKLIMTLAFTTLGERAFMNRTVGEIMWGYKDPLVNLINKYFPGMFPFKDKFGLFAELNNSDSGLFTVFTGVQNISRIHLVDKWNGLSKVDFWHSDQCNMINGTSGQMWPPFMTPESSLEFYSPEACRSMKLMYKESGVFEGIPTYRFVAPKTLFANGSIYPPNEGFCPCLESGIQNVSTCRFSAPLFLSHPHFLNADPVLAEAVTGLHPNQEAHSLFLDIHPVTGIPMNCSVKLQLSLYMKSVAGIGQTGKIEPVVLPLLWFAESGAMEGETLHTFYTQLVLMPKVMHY
# [2] = molecular target: T2, SR-B2 (Scavenger receptor class B protein 2) (Homo sapiens, UniProt Q14108)
# T2 sequence (Q14108 1-478): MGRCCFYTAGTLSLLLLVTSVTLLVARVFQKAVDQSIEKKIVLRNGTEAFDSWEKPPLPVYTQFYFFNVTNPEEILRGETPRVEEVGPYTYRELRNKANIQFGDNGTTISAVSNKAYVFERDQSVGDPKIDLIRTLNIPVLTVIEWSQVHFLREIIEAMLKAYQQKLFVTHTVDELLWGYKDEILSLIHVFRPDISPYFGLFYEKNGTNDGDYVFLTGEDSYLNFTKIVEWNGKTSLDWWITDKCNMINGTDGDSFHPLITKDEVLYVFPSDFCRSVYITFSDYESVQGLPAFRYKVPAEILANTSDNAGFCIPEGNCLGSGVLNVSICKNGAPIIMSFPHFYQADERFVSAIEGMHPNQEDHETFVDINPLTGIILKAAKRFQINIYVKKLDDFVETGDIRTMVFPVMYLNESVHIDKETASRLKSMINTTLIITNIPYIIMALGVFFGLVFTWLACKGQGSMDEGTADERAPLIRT
# [3] = molecular target: CD36 (Cluster determinant 36) (Homo sapiens, UniProt P16671)
# Chain of CD36 (Cluster determinant 36) (P16671 30-439 limits assumed): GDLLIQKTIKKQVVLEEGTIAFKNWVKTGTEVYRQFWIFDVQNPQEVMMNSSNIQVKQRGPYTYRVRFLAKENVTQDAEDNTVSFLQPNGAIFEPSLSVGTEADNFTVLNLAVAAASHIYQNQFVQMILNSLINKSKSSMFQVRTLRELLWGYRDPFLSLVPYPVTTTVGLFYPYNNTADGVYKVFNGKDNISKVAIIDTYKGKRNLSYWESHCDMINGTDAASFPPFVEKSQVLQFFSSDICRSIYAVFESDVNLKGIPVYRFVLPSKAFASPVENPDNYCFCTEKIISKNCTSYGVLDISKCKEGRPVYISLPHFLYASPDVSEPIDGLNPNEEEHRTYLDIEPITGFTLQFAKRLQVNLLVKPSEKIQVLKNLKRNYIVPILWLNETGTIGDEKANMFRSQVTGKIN
SMILES,Kd [1],Kd [2],Kd [3]
CC1=C[C@H](O)CC(C)(C)[C@H]1/C=C/C(C)=C/C=C/C(C)=C/C=C/C=C(C)/C=C/C=C(C)/C=C/C1=C(C)C[C@@H](O)CC1(C)C [lutein],2040 ± 40 nM,2510 ± 40 nM,730 ± 6 nM
CC1=C(/C=C/C(C)=C/C=C/C(C)=C/C=C/C=C(C)/C=C/C=C(C)/C=C/C2=C(C)C[C@H](O)CC2(C)C)C(C)(C)C[C@H](O)C1 [meso-zeaxanthin],3100 ± 200 nM,3900 ± 40 nM,1660 ± 10 nM
CC1=C(/C=C/C(C)=C/C=C/C(C)=C/C=C/C=C(C)/C=C/C=C(C)/C=C/C2=C(C)C[C@@H](O)CC2(C)C)C(C)(C)C[C@H](O)C1 [zeaxanthin],1600 ± 100 nM,1530 ± 40 nM,920 ± 7 nM

# Source: paper PMC5698089 (Archives of biochemistry and biophysics, 2017)
